≈ marks a conversion by molar mass, not a printed value. Where “and” joins values, the source holds several entries; their conditions need not be identical. Identical values can stand only once. Where a SMILES comes first, the peptide text is derived from it. Bridges are numbered along the chain shown (N, C = ends). [ ]: non-standard residue; d: D form. The star is where a group is joined. Nonanoyl = CCCCCCCCC(=O)*; Dab = NCC[C@H](N)C(=O)O
Experiments:
Escherichia coli = test: Antimicrobial activity against Escherichia coli; type: functional
Klebsiella pneumoniae = test: Antimicrobial activity against Klebsiella pneumoniae; type: functional
Pseudomonas aeruginosa = test: Antimicrobial activity against Pseudomonas aeruginosa; type: functional, organism-based
Lipopolysaccharide (LPS) = test: Displacement of dansyl-PMB from LPS by isothermal titration calorimetry
Salmonella enterica = test: Antimicrobial activity against Salmonella enterica; type: functional

| SMILES | MIC (Escherichia coli) | MIC (Klebsiella pneumoniae) | MIC (Pseudomonas aeruginosa) | IC50 (Lipopolysaccharide (LPS)) | MIC (Salmonella enterica) |
| --- | --- | --- | --- | --- | --- |
| CC(C)C[C@@H]1NC(=O)[C@@H](Cc2ccccc2)NC(=O)[C@H](CCN)NC(=O)[C@@H](NC(=O)[C@H](CCN)NC(=O)[C@H](NC(=O)[C@H](CCN)NC(=O)OCC2c3ccccc3-c3ccccc32)[C@@H](C)O)CCNC(=O)[C@@H]([C@@H](C)O)NC(=O)[C@H](CCN)NC(=O)[C@H](CCN)NC1=O | 8 mg/L | 16 mg/L (≈ 12.4 µM) | 4 mg/L | – | – |
| CCC(C)CCCCC(=O)N[C@@H](CC/N=C/c1ccc(N(C)C)cc1)C(=O)N[C@@H](C(=O)N[C@@H](CC/N=C/c1ccc(N(C)C)cc1)C(=O)N[C@H]1CCNC(=O)[C@@H]([C@@H](C)O)NC(=O)[C@H](CC/N=C/c2ccc(N(C)C)cc2)NC(=O)[C@H](CC/N=C/c2ccc(N(C)C)cc2)NC(=O)[C@H](CC(C)C)NC(=O)[C@@H](Cc2ccccc2)NC(=O)[C@H](CC/N=C\c2ccc(N(C)C)cc2)NC1=O)[C@@H](C)O (some centres undefined) | 12 mg/L | 3.1 mg/L (≈ 1.67 µM) | – | – | – |
| CCC(C)CCCCC(=O)N[C@@H](CC/N=C/c1ccc(O)c(OC)c1)C(=O)N[C@@H](C(=O)N[C@@H](CCN)C(=O)N[C@H]1CCNC(=O)[C@@H]([C@@H](C)O)NC(=O)[C@H](CC/N=C/c2ccc(O)c(OC)c2)NC(=O)[C@H](CC/N=C/c2ccc(O)c(OC)c2)NC(=O)[C@H](CC(C)C)NC(=O)[C@@H](Cc2ccccc2)NC(=O)[C@H](CC/N=C/c2ccc(O)c(OC)c2)NC1=O)[C@@H](C)O (some centres undefined) | – | 26 mg/L (≈ 14.9 µM) | – | – | – |
| CCC(C)CCCCC(=O)N[C@@H](CCNCc1ccc(C(C)C)cc1)C(=O)N[C@@H](C(=O)N[C@@H](CCN)C(=O)N[C@H]1CCNC(=O)[C@@H]([C@@H](C)O)NC(=O)[C@H](CCNCc2ccc(C(C)C)cc2)NC(=O)[C@H](CCNCc2ccc(C(C)C)cc2)NC(=O)[C@H](CC(C)C)NC(=O)[C@@H](Cc2ccccc2)NC(=O)[C@H](CCNCc2ccc(C(C)C)cc2)NC1=O)[C@@H](C)O (some centres undefined) | 12 mg/L | 26 mg/L (≈ 15 µM) | – | – | – |
| CCC(C)CCCCC(=O)N[C@@H](CCNCc1ccc(O)c(OC)c1)C(=O)N[C@@H](C(=O)N[C@@H](CCN)C(=O)N[C@H]1CCNC(=O)[C@@H]([C@@H](C)O)NC(=O)[C@H](CCNCc2ccc(O)c(O)c2)NC(=O)[C@H](CCNCc2ccc(O)c(OC)c2)NC(=O)[C@H](CC(C)C)NC(=O)[C@@H](Cc2ccccc2)NC(=O)[C@H](CCNCc2ccc(O)c(OC)c2)NC1=O)[C@@H](C)O (some centres undefined) | 724 mg/L | 12 mg/L (≈ 6.92 µM) | – | – | – |
| CCC(C)CCCCC(=O)N[C@@H](CC/N=C/c1ccc(O)c(OC)c1)C(=O)N[C@@H](C(=O)N[C@@H](CCN)C(=O)N[C@H]1CCNC(=O)[C@@H]([C@@H](C)O)NC(=O)[C@H](CC/N=C/c2ccc(O)c(OC)c2)NC(=O)[C@H](CC/N=C/c2ccc(O)c(OC)c2)NC(=O)[C@H](CC(C)C)NC(=O)[C@@H](CC(C)C)NC(=O)[C@H](CC/N=C/c2ccc(O)c(OC)c2)NC1=O)[C@@H](C)O (some centres undefined) | 5.5 mg/L | 2.8 mg/L (≈ 1.64 µM) | – | – | – |
| CCC(C)CCCCC(=O)N[C@@H](CCNCc1ccccc1)C(=O)N[C@H](C(=O)N[C@@H](CCN)C(=O)N[C@H]1CCNC(=O)[C@H]([C@@H](C)O)NC(=O)[C@H](CCNCc2ccccc2)NC(=O)[C@H](CCNCc2ccccc2)NC(=O)[C@H](CC(C)C)NC(=O)[C@@H](Cc2ccccc2)NC(=O)[C@H](CCNCc2ccccc2)NC1=O)[C@@H](C)O (some centres undefined) | 5 mg/L | 1.3 mg/L (≈ 0.831 µM) | – | – | – |
| CCC(C)CCCCC(=O)N[C@@H](CC/N=C/c1ccc(O)cc1)C(=O)N[C@H](C(=O)N[C@@H](CCN)C(=O)N[C@H]1CCNC(=O)[C@H]([C@@H](C)O)NC(=O)[C@H](CC/N=C/c2ccc(O)cc2)NC(=O)[C@H](CC/N=C/c2ccc(O)cc2)NC(=O)[C@H](CC(C)C)NC(=O)[C@@H](Cc2ccccc2)NC(=O)[C@H](CC/N=C/c2ccc(O)cc2)NC1=O)[C@@H](C)O (some centres undefined) | – | 26 mg/L (≈ 16.1 µM) | – | – | – |
| CCC(C)CCCCC(=O)N[C@@H](CC/N=C/c1ccccc1)C(=O)N[C@H](C(=O)N[C@@H](CCN)C(=O)N[C@H]1CCNC(=O)[C@H]([C@@H](C)O)NC(=O)[C@H](CC/N=C/c2ccccc2)NC(=O)[C@H](CC/N=C/c2ccccc2)NC(=O)[C@H](CC(C)C)NC(=O)[C@@H](Cc2ccccc2)NC(=O)[C@H](CC/N=C/c2ccccc2)NC1=O)[C@@H](C)O (some centres undefined) | – | 26 mg/L (≈ 16.7 µM) | – | – | – |
| CCC(C)CCCCC(=O)N[C@@H](CCNCc1ccc(O)cc1)C(=O)N[C@H](C(=O)N[C@@H](CCN)C(=O)N[C@H]1CCNC(=O)[C@H]([C@@H](C)O)NC(=O)[C@H](CCNCc2ccc(O)cc2)NC(=O)[C@H](CCNCc2ccc(O)cc2)NC(=O)[C@H](CC(C)C)NC(=O)[C@@H](Cc2ccccc2)NC(=O)[C@H](CCNCc2ccc(O)cc2)NC1=O)[C@@H](C)O (some centres undefined) | 6.2 mg/L | 1.6 mg/L (≈ 0.983 µM) | – | – | – |
| CCC(C)CCCCC(=O)N[C@@H](CC/N=C/c1ccc(N(C)C)cc1)C(=O)N[C@H](C(=O)N[C@@H](CCN)C(=O)N[C@H]1CCNC(=O)[C@H]([C@@H](C)O)NC(=O)[C@H](CC/N=C/c2ccc(N(C)C)cc2)NC(=O)[C@H](CC/N=C/c2ccc(N(C)C)cc2)NC(=O)[C@H](CC(C)C)NC(=O)[C@@H](CC(C)C)NC(=O)[C@H](CC/N=C/c2ccc(N(C)C)cc2)NC1=O)[C@@H](C)O (some centres undefined) | 12 mg/L | 3.1 mg/L (≈ 1.83 µM) | – | – | – |
| CCC(C)CCCCC(=O)N[C@@H](CCNCc1ccc(O)cc1)C(=O)N[C@H](C(=O)N[C@@H](CCN)C(=O)N[C@H]1CCNC(=O)[C@H]([C@@H](C)O)NC(=O)[C@H](CCNCc2ccc(O)cc2)NC(=O)[C@H](CCNCc2cccc(O)c2)NC(=O)[C@H](CC(C)C)NC(=O)[C@@H](CC(C)C)NC(=O)[C@H](CCNCc2ccc(O)cc2)NC1=O)[C@@H](C)O (some centres undefined) | 5.5 mg/L | 1.4 mg/L (≈ 0.878 µM) | – | – | – |
| CCC(C)CCCCC(=O)N[C@@H](CCNCc1ccccc1)C(=O)N[C@H](C(=O)N[C@@H](CCN)C(=O)N[C@H]1CCNC(=O)[C@H]([C@@H](C)O)NC(=O)[C@H](CCNCc2ccccc2)NC(=O)[C@H](CCNCc2ccccc2)NC(=O)[C@H](CC(C)C)NC(=O)[C@@H](CC(C)C)NC(=O)[C@H](CCNCc2ccccc2)NC1=O)[C@@H](C)O (some centres undefined) | 5 mg/L | 1.3 mg/L (≈ 0.85 µM) | – | – | – |
| CCC(C)CCCCC(=O)N[C@@H](CC/N=C/c1ccccc1)C(=O)N[C@H](C(=O)N[C@@H](CCN)C(=O)N[C@H]1CCNC(=O)[C@H]([C@@H](C)O)NC(=O)[C@H](CC/N=C/c2ccccc2)NC(=O)[C@H](CC/N=C/c2ccccc2)NC(=O)[C@H](CC(C)C)NC(=O)[C@@H](CC(C)C)NC(=O)[C@H](CC/N=C/c2ccccc2)NC1=O)[C@@H](C)O (some centres undefined) | 0.08 mg/L | 26 mg/L (≈ 17.1 µM) | – | – | – |
| CCCCCCCC(=O)N[C@@H](CCN)C(=O)N[C@@H](C(=O)N[C@@H](CCN)C(=O)N[C@H]1CCNC(=O)[C@H]([C@@H](C)O)NC(=O)[C@H](CCNCCCCCC(C)CC)NC(=O)[C@H](CCN)NC(=O)[C@H](CC(C)C)NC(=O)[C@@H](Cc2ccccc2)NC(=O)[C@H](CCN)NC1=O)[C@@H](C)O (some centres undefined) | 3.1 mg/L | 0.7 mg/L (≈ 0.532 µM) | 2.18 mg/L | – | – |
| CCCCCCCC(=O)N[C@@H](CCN)C(=O)N[C@H](C(=O)N[C@@H](CCN)C(=O)N[C@H]1CCNC(=O)[C@H]([C@@H](C)O)NC(=O)[C@H](CCNC(=O)[C@@H](N)Cc2ccc(O)cc2)NC(=O)[C@H](CCN)NC(=O)[C@H](CC(C)C)NC(=O)[C@@H](Cc2ccccc2)NC(=O)[C@H](CCN)NC1=O)[C@@H](C)O | 0.175 mg/L | 2.2 mg/L (≈ 1.63 µM) | 0.073 mg/L | – | – |
| CCCCCCCC(=O)N[C@@H](CCN)C(=O)N[C@H](C(=O)N[C@@H](CCN)C(=O)N[C@H]1CCNC(=O)[C@H]([C@@H](C)O)NC(=O)[C@H](CCNC(=O)[C@H](N)CCSC)NC(=O)[C@H](CCN)NC(=O)[C@H](CC(C)C)NC(=O)[C@@H](Cc2ccccc2)NC(=O)[C@H](CCN)NC1=O)[C@@H](C)O | 0.77 mg/L | 5.65 mg/L (≈ 4.28 µM) | 0.416 mg/L | – | – |
| CCCCCCCC(=O)N[C@@H](CCN)C(=O)N[C@H](C(=O)N[C@@H](CCN)C(=O)N[C@H]1CCNC(=O)[C@H]([C@@H](C)O)NC(=O)[C@H](CCNC(=O)[C@@H](N)CS)NC(=O)[C@H](CCN)NC(=O)[C@H](CC(C)C)NC(=O)[C@@H](Cc2ccccc2)NC(=O)[C@H](CCN)NC1=O)[C@@H](C)O | 1.68 mg/L | 11.3 mg/L (≈ 8.75 µM) | 2.82 mg/L | – | – |
| CCCCCCCCC(=O)N[C@@H](CCN)C(=O)N[C@H](C(=O)N[C@@H](CCN)C(=O)N[C@H]1CCNC(=O)[C@H]([C@@H](C)O)NC(=O)[C@H](CCN)NC(=O)[C@H](CCN)NC(=O)[C@H](CC(C)C)NC(=O)[C@@H](Cc2ccccc2)NC(=O)[C@H](CCN)NC1=O)[C@@H](C)O [POLYMYXIN B5] (Nonanoyl-[Dab]T[Dab][Dab][Dab][dF]L[Dab][Dab]T; lactam 4-C) | 1 µM | – | 1 µM | 6 µM | 1 µM (≈ 1.2 µg/mL) |
| CCC(C)CCC(O)CC(=O)N[C@@H](CCN)C(=O)N[C@H](C(=O)N[C@@H](CCN)C(=O)N[C@H]1CCNC(=O)[C@H]([C@@H](C)O)NC(=O)[C@H](CCN)NC(=O)[C@H](CCN)NC(=O)[C@H](CC(C)C)NC(=O)[C@@H](Cc2ccccc2)NC(=O)[C@H](CCN)NC1=O)[C@@H](C)O (some centres undefined) [POLYMYXIN B6] | 0.5 µM | – | 0.5 µM | 7 µM | 0.5 µM (≈ 0.61 µg/mL) |
| CC(C)C[C@@H]1NC(=O)[C@@H](Cc2ccccc2)NC(=O)[C@H](CCN)NC(=O)[C@@H](N)CCNC(=O)[C@H]([C@@H](C)O)NC(=O)[C@H](CCN)NC(=O)[C@H](CCN)NC1=O [POLYMYXIN B HEPTAPEPTIDE] | ≥ 256 µM and ≥ 300 µg/mL | – | 128 µM | >= 32 nmol/ml | ≥ 256 µM |
| CC(C)C[C@@H]1NC(=O)[C@@H](Cc2ccccc2)NC(=O)[C@H](CCN)NC(=O)[C@@H](NC(=O)[C@@H](N)CCN)CCNC(=O)[C@H]([C@@H](C)O)NC(=O)[C@H](CCN)NC(=O)[C@H](CCN)NC1=O [POLYMYXIN B OCTAPEPTIDE] (H-[Dab][Dab][Dab][dF]L[Dab][Dab]T; lactam 2-C) | ≥ 128 µM and ≥ 300 µg/mL | – | 64 µM | 21 µM | 256 µM (≈ 221 µg/mL) |

— ChEMBL document CHEMBL1156251, “Structure--activity relationships of polymyxin antibiotics” (J Med Chem, 2010)
